We go through 2 molecules from patent US9273043B2, “TRPV1 antagonists including dihydroxy substituent and uses thereof” (Purdue Pharma L.P., priority 2011, dated 2016).

Each structure is given as a SMILES string. Marks after values point to notes of the source that are not given here.

Test [1] relates to MIA-induced osteoarthritis pain. Description: MIA-induced osteoarthritis model, weight bearing difference (WBD) test. Format: in vivo. Conditions: rat MIA, oral 3 mg/kg. The text has this:
Osteoarthritis Pain: To assess the actions of a Compound of Formula (I) for the treatment or prevention of osteoarthritis pain, the rat monosodium iodo-acetate (MIA, i.e., sodium 2-iodoacetate) induced osteoarthritis model was used. Intra-articular injection of MIA causes joint degeneration characterized by osteolysis and swelling, with displacement of the patella, and reductions in bone mineral content and bone mineral density (Pomonis et al., “Development and pharmacological characterization of a rat model of osteoarthritis pain,” Pain 114: 339-346 (2005)). Under isoflurane anaesthesia, an intra-articular injection of 2 mg of MIA (Sigma-Aldrich) in 50 μl of saline was administered through the infrapatellar ligament of the knee joint of the right hind leg of the male, 6 week old Crl:CD(SD) rats. Control rats received an intra-articular injection of 50 μl of saline into the knee joint of the right hind leg. The left knee joint of all rats was untreated. […] Thus, in the assessment for osteoarthritis pain relief through gripping capability determinations, the 24 hour time point was the start of the next day when drug-in-vehicle was again orally administered (24 hours after the prior administration) for certain dosages. […] Weight Bearing Difference Test as an Assessment of Osteoarthritis Related Pain: The weight bearing difference test provides an accepted assessment of the efficacy of clinically useful analgesic drugs with respect of osteoarthritis related pain (see Pomonis et al. (2005)). WBD was assessed using a Linton Incapacitance Tester (Linton Instrumentation, Norfolk, UK). Rats were placed on the apparatus so that they were standing on their hind legs, and allowed to acclimate to the apparatus. When stationary, the weight born on each leg was measured over a 3s period. Three readings were taken for each rat at each time point; the average of the three readings was used for data analysis. WBD was expressed as “% WR”, i.e., the percentage of weight born on the MIA-injected right hind leg, using the following formula: [formula] where WR is the weight on the right hind leg and WL is the weight on the left (untreated) hind leg. […] The “% WRR”, i.e., the percentage reversal of the % WR impediment occurring post-MIA injection, was determined for each dosage at each time point using the following formula: [formula] where (% WR)Post-Drug is the % WR determined at each post-oral-administration time-point for each dose of each administered substance, (% WR)Pre-Drug is the % WR determined pre-oral-administration of each administered substance, and (% WR)Control Rat is the % WR determined for control rats (receiving the saline injection into the right hind leg knee joint). With the exception of the controls (i.e., celecoxib, vehicle) where the student's t-test was used, Dunnett's test was conducted for the % WRR.

The test system is the same in test [2]. As to the kind of experiment: MIA-induced osteoarthritis model, grip force test. Format: in vivo, rat. The note with it: for % GFR [mean]: rat MIA, grip force, oral 3 mg/kg. The text has this: Osteoarthritis Pain: To assess the actions of a Compound of Formula (I) for the treatment or prevention of osteoarthritis pain, the rat monosodium iodo-acetate (MIA, i.e., sodium 2-iodoacetate) induced osteoarthritis model was used. Intra-articular injection of MIA causes joint degeneration characterized by osteolysis and swelling, with displacement of the patella, and reductions in bone mineral content and bone mineral density (Pomonis et al., “Development and pharmacological characterization of a rat model of osteoarthritis pain,” Pain 114: 339-346 (2005)). Under isoflurane anaesthesia, an intra-articular injection of 2 mg of MIA (Sigma-Aldrich) in 50 μl of saline was administered through the infrapatellar ligament of the knee joint of the right hind leg of the male, 6 week old Crl:CD(SD) rats. Control rats received an intra-articular injection of 50 μl of saline into the knee joint of the right hind leg. The left knee joint of all rats was untreated. Two weeks after MIA injection, rats were assessed for osteoarthritis pain related-behaviors immediately prior to and 1, 3, 5, 7, and 24 hours after oral drug-in-vehicle administration (for day 1) by determining their weight-bearing capabilities, via the weight bearing difference (WBD) test, and their gripping capabilities, via the grip force test, each as described below. Thus, in the assessment for osteoarthritis pain relief through gripping capability determinations, the 24 hour time point was the start of the next day when drug-in-vehicle was again orally administered (24 hours after the prior administration) for certain dosages. On days 2, 3, and 4, gripping capability response was determined 3 and 24 hours thereafter.
The grip force (GF) of the hind legs was assessed using a Animal Grip Strength System (San Diego Instruments, San Diego, Calif.). Rats were gently restrained and allowed to grasp the wire mesh strain gauge with their hind legs. The animals were then moved in a rostral-caudal direction until they let go of the gauge. The force (in g) at which the rat let go was recorded. Each animal was tested twice at approximately 3-10 minute intervals at each time point and the average of the two readings was used for the GF in data analysis.
Grip force, normalized to account for the weight of each animal, was expressed as “GF/B”, i.e., the ratio of GF to body weight, where GF is the grip force in grams and B is the body weight of the animal in kg. The “% GFR”, i.e., the percentage reversal of the (normalized) grip force impediment occurring post-MIA injection, was determined for each dosage at each time point using the following formula:
[formula] where (GF/B)Drug is the GF/B determined at each post-oral-administration time-point for each dose of each substance administered to MIA-injected animals, (GF/B)Vehicle is the GF/B determined at each post-oral-administration time-point for the vehicle control administered to MIA-injected animals, and (GF/B)Control Rat is the GF/B determined for control rats (saline-injected animals receiving orally-administered vehicle only). With the exception of the controls (i.e., celecoxib, vehicle) where the student's t-test was used, Dunnett's test was conducted for the % GFR. In either instance, values with p <0.05 were considered to be statistically significant.

Test [3] concerns neuropathic mechanical hyperalgesia after partial sciatic nerve ligation. As to the kind of experiment: Seltzer model (partial sciatic nerve ligation) of neuropathic pain, paw withdrawal threshold. The note with it: for % Reversal [mean ± SEM]: rat. Format: in vivo, rat. As for the experimental part: In the Seltzer model, the partial sciatic nerve ligation model of neuropathic pain was used to produce neuropathic hyperalgesia in rats (Seltzer et al., “A Novel Behavioral Model of Neuropathic Pain Disorders Produced in Rats by Partial Sciatic Nerve Injury,” Pain 43:205-218 (1990)). Partial ligation of the left sciatic nerve was performed under isoflurane/O2 inhalation anaesthesia. Following induction of anesthesia, the left thigh of the male, 6-7 week old Jcl:SD rat was shaved. The sciatic nerve was exposed at high thigh level through a small incision and was carefully cleared of surrounding connective tissues at a site near the trocanther just distal to the point at which the posterior biceps semitendinosus nerve branches off of the common sciatic nerve. A 7-0 silk suture was inserted into the nerve with a ⅜ curved, reversed-cutting mini-needle and tightly ligated so that the dorsal ⅓ to ½ of the nerve thickness was held within the ligature. The wound was closed with a single muscle suture (4-0 nylon (Vicryl)) and vetbond tissue glue. The wound area was then dusted with antibiotic powder. Sham treatment involved an identical surgical procedure except that the sciatic nerve was not manipulated or ligated.
Following surgery, animals were weighed and placed on a warm pad until they recovered from anesthesia. Animals were then returned to their home cages until behavioral testing began. The animal was assessed for response to noxious mechanical stimuli by determining PWT for the rear paw of the animal, as described below, prior to surgery (baseline), then immediately prior to and 1, 3, 5, 7, and 24 hours after oral drug-in-vehicle administration (for day 1). Thus, the 24 hour time point was the start of the next day when drug-in-vehicle was again orally administered (24 hours after the prior administration). On days 2 and 3, PWT response was determined 1, 3, and 24 hours thereafter. Percentage reversal of neuropathic hyperalgesia at each of the specified times after administration was defined as: […]
Additionally, 10 mg/kg of pregabalin (Kemprotec, Ltd., Middlesbrough, UK), an anticonvulsant accepted for relief of particular neuropathic pain, in vehicle and the vehicle alone (0.5% weight/volume methylcellulose (400cP, Wako Pure Chemical Industries, Ltd.)/aqueous solution) were orally administered as controls. […] Ten rats that underwent partial ligation of the left sciatic nerve were used for each treatment group. Dunnett's test was conducted for the % reversal; values with p<0.05 were considered to be statistically significant.
Additionally, as a control the rats underwent sham surgery in which an identical surgical procedure was followed with regard to the right thigh but the sciatic nerve was neither manipulated nor ligated.
Response to Mechanical Stimuli as an Assessment of Mechanical Hyperalgesia: The paw pressure assay was used to assess mechanical hyperalgesia. […] Biochem. and Behavior 31:451-455 (1988). The maximum weight that could be applied to the hind paw was set at 250 g and the end point was taken as complete withdrawal of the paw. PWT was determined once for each rat at each time point and either only the affected (ipsilateral) paw was tested, or both the ipsilateral and contralateral (non-injured) paw were tested.

For the molecule `Cc1ccc(-c2cc(C(F)(F)F)nn2-c2ccc(S(N)(=O)=O)cc2)cc1` [Celecoxib, celecoxib, reference compound], the “% WRR [mean]” value is listed as 10.2^† % in test [1] (1 h after administration); 10.2% in test [1] (1 h after administration, listed as celecoxib); 27.8^†† % in test [1] (3 h after administration); 27.8% in test [1] (3 h after administration, listed as celecoxib); 14.1^†† % in test [1] (5 h after administration); 14.1% in test [1] (5 h after administration, listed as celecoxib). In addition, the “% WRR [mean]” value in test [1] (7 h after administration) is listed as 6.0^† %; in test [1] (7 h after administration, listed as celecoxib) it was 6.0%; in test [1] (24 h after administration) it was 2.0%. Moreover, in test [2] (30.0% reversal (3 mg/kg, 3 h, day 1) as share of the 45.2% reversal of the product at 1 mg/kg), the “maximum analgesic efficacy relative to the Example 10 product at 1 mg/kg” value was “about 66.4%”. In addition, the “maximum analgesic efficacy relative to the Example 10 product at 3 mg/kg” value in test [2] (30.0% reversal (3 mg/kg, 3 h, day 1) as share of the 53.6% reversal of the product at 3 mg/kg) is recorded as around 56.0%. Moreover, the “% GFR [mean]” value is listed as 22.6^†† % in test [2] (1 h (day 1)); 30.0^†† % in test [2] (3 h (day 1)); 30.0% in test [2] (3 h (day 1), listed as celecoxib); 20.9^†† % in test [2] (5 h (day 1)); 3.6% in test [2] (7 h (day 1)); −3.6% in test [2] (24 h after day 1 dose (0 hrs day 2)).

Regarding `CC(C)C[C@H](CN)CC(=O)O` [pregabalin, reference compound], the “maximum analgesic efficacy relative to the Example 10 product at 10 mg/kg” value in test [3] (24.73% reversal (10 mg/kg, 3 h, day 1) as share of the 34.17% reversal of the product at 10 mg/kg) is “about 72%”. Moreover, the “% Reversal [mean ± SEM]” value in test [3] (pregabalin control 10 mg/kg oral once daily, 1 hours (day 2) after administration) is 16.74 ± 4.23 %; in test [3] (pregabalin control 10 mg/kg oral once daily, 1 hours (day 3) after administration) it was 17.16 ± 6.64 %; in test [3] (pregabalin control 10 mg/kg oral once daily, 3 hours (day 2) after administration) it was 23.21 ± 2.30 %; in test [3] (pregabalin control 10 mg/kg oral once daily, 3 hours (day 3) after administration) it was 26.56 ± 4.95 %; in test [3] (pregabalin control 10 mg/kg oral once daily, 24 hours (0 hrs day 2) after administration), −2.84 ± 4.74%; in test [3] (pregabalin control 10 mg/kg oral once daily, 24 hours (0 hrs day 3) after administration), 1.70 ± 4.29%. The “% Reversal [mean ± SEM]” value in test [3] (pregabalin control 10 mg/kg oral once daily, 24 hours (0 hrs day 4) after administration) is on record as −3.67 ± 2.66%; in test [3] (pregabalin control 10 mg/kg oral, 1 hours (day 1) after administration) it was 24.05 ± 6.46 %; in test [3] (pregabalin control 10 mg/kg oral, 3 hours (day 1) after administration) it was 24.73 ± 4.12 %; in test [3] (pregabalin control 10 mg/kg oral, 5 hours (day 1) after administration), 19.97 ± 4.79 %; in test [3] (pregabalin control 10 mg/kg oral, 7 hours (day 1) after administration) it was 11.89 ± 3.16 %. The “% reversal of neuropathic hyperalgesia” value in test [3] (rat Seltzer model, oral 10 mg/kg, 3 h after day 1 administration (maximum)) is reported as 24.73%.
